In patent publication US20200087625A1, “METHODS FOR ISOLATING, EXPANDING AND ADMINISTERING CANCER SPECIFIC CD8+ T CELLS” (priority 2017, published 2020):

Assays:
4T1 cells [1] = assay: Spontaneous lung metastasis model, orthotopic 4T1 breast cancer; format: in vivo, BALB/c mice
Method: FIGS. 22A-22C. Systemic administration of 1V270 inhibits lung metastasis in the 4T1 murine syngeneic breast cancer model in a CD8^+ T cell dependent manner. (A) Protocol of spontaneous metastasis model. 4T1 cells (5×10^5) were inoculated in both 4th mammary pads of Balb/c mice (n=13/group) 1V270 (20, 80, 04 200 μg/injection) was administered on days 7, 10, 14, 17, 21 and 24. (B) The numbers of lung nodules were counted by staining with India ink after harvesting lungs on day 27. (C) The mice (n=6-15/group) were orthotopically implanted with 4T1 cells and i.p. treated with 1V270 (20 μg/injection) as shown in FIG. 1A. CD8^+ cells were depleted by administration of anti-CD8 or isotype mAbs on days 5, 8, 11, 16, 19, and 23. The numbers of lung nodules were counted on day 27. Each dot indicates an individual mouse and horizontal and vertical bars indicate means±SEM. Data shown are pooled from 2 independent experiments. *P<0.05, **P<0.01 by Kruskal-Wallis test with Dunn's post hoc test comparing treatment groups against vehicle group. n.s; statistically not significant.
FIGS. 28A-28C. […] Tumor growth was measured with a caliper and calculated using the formula: volume (mm^3)=(width)^2×length/2. […]
In the spontaneous metastasis model, othotopically implanted tumor cells spontaneously form lung metastases within three weeks after implantation. […] Tumor length and width were recorded, and tumor volumes were calculated using the formula: volume (mm^3)=(width)^2×length/2. […] On day 21, mice were euthanized and tumor nodules in lungs were counted as described above. […] Tumor length and width were recorded, and tumor volumes were calculated similar with
4T1 cells (5×10^5) were inoculated into the 4th mammary pads on day 0, and 1V270 (20, 80, or 200 μg/injection) was injected intraperitoneally (i.p.) twice a week for three weeks, starting on day 7 (FIG. 22A). Both the primary tumor volumes and the numbers of lung metastases were evaluated on day 27. […]

primary tumor = conditions: cited from earlier work
4T1 cells [2] = assay: IV (experimental) lung metastasis model of 4T1 breast cancer; format: in vivo, BALB/c mice

CCCCCCCCC=CCCCCCCCC(=O)OCC(COP(=O)(O)OCCNC(=O)c1ccc(Cn2c(=O)[nH]c3c(N)nc(OCCOC)nc32)cc1)OC(=O)CCCCCCCC=CCCCCCCCC (stereo not drawn) [1V270]
tumor growth at the primary sites of implantation (4T1 cells [1]; 1V270 20, 80 or 200 μg/injection i.p. from day 7): did not retard tumor growth at the primary sites of implantation | number of lung metastases (4T1 cells [1]; 1V270 20, 80 or 200 μg/injection i.p. twice a week for three weeks from day 7, evaluated day 27): decreased the number of lung metastases | numbers of lung nodules after CD8+ cell depletion (4T1 cells [1]; anti-CD8 mAb depletion, 1V270 20 μg/injection i.p.): increased significantly | primary tumor growth (primary tumor; intratumoral administration): inhibits primary tumor growth | systemic cytokine induction (primary tumor; local (intratumoral) treatment): without causing systemic cytokine induction | lung metastasis after a single administration (4T1 cells [2]; 200 μg i.p., 1 day prior to tumor inoculation): sufficient to inhibit lung metastasis | lung metastasis (number of lung nodules) (4T1 cells [2]; 1V270 2, 20 or 200 μg/injection i.p. days -1, 7, 10, 14, counted day 21): inhibited lung metastasis in a dose-dependent manner | lowest effective dose (4T1 cells [2]; i.p., inhibition of lung metastasis): 20 µg | number of lung nodules (4T1 cells [2]; intranasal 20 or 200 μg/50 μL on days -3, -1, 3, 7, 10): inhibited the number of lung nodules in a dose-dependent manner
